The source of these data is patent publication US20210332024A1, “MODULATORS OF PIN1 ACTIVITY AND USES THEREOF” (Yeda Research and Development Co. Ltd., priority 2019, published 2021).

Data set [1] relates to Myc transcriptional output in Mino B cells. As to the kind of experiment: RNA sequencing and gene set enrichment. Type of data set: cell-based, human. As to conditions: 1 μM, 6 hours. On the procedure: Mino cells (acquired from the ATCC) were grown at 37° C. in a 5% CO2 humidified incubator and cultured in RPMI-1640 (Biological Industries), supplemented with 15% fetal bovine serum (Biological Industries) and 1% pen-strep solution (Biological Industries). 11×10^6 cells were incubated with 1 μM Pin1-3 (0.02% DMSO) or with 0.02% DMSO in triplicates for 6 hours. Total RNA was isolated with RNeasy™ kit (Qiagen). RNA libraries were prepared from 2 μg total RNA using SENSE™ mRNA-Seq library prep kit V2 (Lexogen). Total RNA and library quality was analyzed using Qubit™ fluorometric and TapeStation™ analysis (Agilent). Samples were sequenced using NextSeg™ 500/550 High Output Kit v2.5 (Illumina) on NextSeg™ 550.
RNA-seq reads were aligned to the human genome (hg19 assembly) using STAR [Dobin et al., Bioinformatics 2013, 29:15-21] and gene expression was determined using RSEM [L1 & Dewey, BMC Bioinformatics 2011, 12:323] and RefSeq annotations. Differential expression was computed using DESeq2 [Love et al., Genome Biol 2014, 15:550] with default parameters.
In order to test whether Pin1-3 affects Myc transcriptional output, Mino B cells were treated with Pin1-3 (1 μM) for 6 hours (in triplicates) or vehicle (DMSO), followed by a global RNA sequencing analysis to detect differentially expressed genes as the result of this perturbation. […]

Another data set deals with T1, catalytic domain of Pin1 (Homo sapiens, UniProt Q13526).
T1 construct: The purified catalytic domain of Pin1 was incubated with the fragment library
Put plainly: Intact protein LC/MS labeling of Pin1. Type of data set: binding.

Data set [2] can be described thus: Pharmacokinetics, oral administration. Type of data set: in vivo, Male C57Bl/6J mice. As to conditions: for AUC(0-inf): read-out: AUCINF obs. (converted). The protocol: Male C57Bl/6J mice received Pin1-3 intravenously (as a 0.2 mg/ml solution in 5/5/90 NMP/Solutol/saline) or orally (as a 1 mg/ml solution in 5/5/90 NMP/Solutol/saline). The intravenous dosage was 2 mg/kg and the oral dosage was 10 mg/kg.

Setting [3] is: male, C57Bl/6J, mouse, in vivo, po, 10 mg/kg, oral 10 mg/kg, Avg. of 3 mice.
Where [4] appears, read: male, C57Bl/6J, mouse, in vivo, po, 10 mg/kg, oral 10 mg/kg, individual mice No. 1-3.
[5] abbreviates: oral 10 mg/kg, individual mice No. 1-3, 10 mg/kg.

“And” between values parts separate entries of the source, which are not always exact repeats. Equal entries are not always repeated. Where two headings read alike, the source gives them in different places.

T1 sequence (Q13526 52-163 limits assumed): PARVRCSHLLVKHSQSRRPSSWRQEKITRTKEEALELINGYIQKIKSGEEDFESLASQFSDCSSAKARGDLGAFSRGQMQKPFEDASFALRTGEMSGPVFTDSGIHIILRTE

For `CC(C)(C)CN(C(=O)CCl)C1CCS(=O)(=O)C1` (stereo not drawn) [Pin1-3, 2-chloro-N-(sulfolan-3-yl)-N-neopentylacetamide], in data set [1], the “Myc transcriptional signature (Enrichr, ENCODE TF ChIP-seq sets)” value is reported as “significant downregulation of Myc's transcriptional signature” and the “Number of genes significantly downregulated” value was 206 genes. Also, the “Labeling [%]” value on catalytic domain of Pin1 (2 μM Pin1 with 2 μM test compound for 15 minutes at room temperature) came to 10%. In addition, the “Labeling [%]” value at catalytic domain of Pin1 (2 μM Pin1 with 2 μM test compound for 1 hour at room temperature) turned out to be 48%. Further, in data set [2] (setting [3]), the AUC(0-t) (usually exposure summed from dosing to a finite time, without extrapolation to infinity) is 9210 ng·h/mL and 32.8 µM·h; the time to peak (Tmax) (as a rule, the time at which the peak concentration occurs) is 25.2 min; the half-life (commonly the time in which the quantity being followed falls by half) is 49.2 min; the AUC(0-inf) was 9230 ng·h/mL. The highest concentration (Cmax) (usually the maximum level reached in the sampled fluid or tissue) in data set [2] (male, C57Bl/6J, mouse, in vivo, po, 10 mg/kg, oral 10 mg/kg, Avg. of 3 mice, read-out: Cmax) is 11.5 µM and 3220 ng/mL. Further, in data set [2] (setting [4]), the AUC(0-t) is 9590 ng·h/mL and 34.1 µM·h; the Tmax was 15 min; the half-life was 38.4 min; the AUC(0-inf) was 9600 ng·h/mL. The highest concentration (Cmax) in data set [2] (male, C57Bl/6J, mouse, in vivo, po, 10 mg/kg, oral 10 mg/kg, individual mice No. 1-3, read-out: Cmax) was 4050 ng/mL and 14.4 µM. Besides, in data set [2] (male, C57Bl/6J, mouse, in vivo, oral 10 mg/kg vs intravenous 2 mg/kg, Avg., read-out: F % (oral bioavailability)), the bioavailability (commonly the share of a dose that reaches the circulation, judged against a reference dose that is usually intravenous) was 30.4%. For the same compound, in data set [2] (oral 10 mg/kg, Avg. of 3 mice), the AUC % extrap. was 0.24% and the Cl obs. came out at 18.15 mL/min/kg. Further, in data set [2] (setting [5]), the AUC % extrap. was 0.03% and 0.32% and 0.38%; the AUCINF obs. is 498172 ng·min/mL and 587646 ng·min/mL; the AUClast was 496559 min*ng/ml and 29.4 hr*μM and 585438 min*ng/ml and 34.7 hr*μM; the Cl obs. was 17.37 mL/min/kg and 20.07 mL/min/kg and 17.02 mL/min/kg. Also, in data set [2] (setting [5]), the Cmax is 2420 ng/mL and 3200 ng/mL; the T1/2 is 54.6 min and 55.2 min. Moreover, the peak concentration (Cmax) in data set [2] (oral 10 mg/kg, individual mice No. 1-3, 10 mg/kg, read-out: Cmax) was 8.61 µM and 11.4 µM.
